Experimental data taken from patent US10519134B2, “Pyrazole compounds and methods of making and using same” (Lundbeck La Jolla Research Center, Inc., priority 2015, dated 2019).
pIC50: −log10 of the molar value.

Assays:
MAGL [1] = target: T1, MAGL (Mus musculus, UniProt O35678); test: In vitro competitive activity-based protein profiling (mouse), MAGL gel band; assay type: biochemical; details: for inhibition at 1 µM: read-out: MAGL % inh. 1 μM; for pIC50: mouse
T1 construct: Proteomes (mouse brain membrane fraction or cell lysates); from tissue; host or cells: mouse brain membrane fraction (or cell lysates)
T1 sequence (O35678 1-303): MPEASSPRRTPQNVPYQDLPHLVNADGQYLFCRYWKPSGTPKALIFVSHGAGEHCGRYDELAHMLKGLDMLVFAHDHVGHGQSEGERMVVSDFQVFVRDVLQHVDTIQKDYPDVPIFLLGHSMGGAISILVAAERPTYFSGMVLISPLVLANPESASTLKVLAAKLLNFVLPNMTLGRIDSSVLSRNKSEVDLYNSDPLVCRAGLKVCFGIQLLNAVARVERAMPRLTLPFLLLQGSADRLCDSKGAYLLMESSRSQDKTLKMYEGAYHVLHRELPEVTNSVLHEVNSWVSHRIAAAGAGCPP
Summary of the method: (§1)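 Mouse brain membrane proteome or cell lysate (1.0 mg/mL total protein) was preincubated with varying inhibitor concentrations for 30 min at 37 °C, then labelled for 30 min at 37 °C with FP-Rh or HT-01 (50 μM stock in DMSO). Activity was read as fluorescent band intensity after SDS-PAGE.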

FAAH = target: T2, FAAH (Mus musculus, UniProt O08914); test: In vitro competitive activity-based protein profiling (mouse), FAAH gel band; assay type: biochemical; details: for inhibition at 1 µM: read-out: FAAH % inh. 1 μM; for pIC50: mouse
T2 construct: Proteomes (mouse brain membrane fraction or cell lysates); from tissue; host or cells: mouse brain membrane fraction (or cell lysates)
T2 sequence (O08914 1-579): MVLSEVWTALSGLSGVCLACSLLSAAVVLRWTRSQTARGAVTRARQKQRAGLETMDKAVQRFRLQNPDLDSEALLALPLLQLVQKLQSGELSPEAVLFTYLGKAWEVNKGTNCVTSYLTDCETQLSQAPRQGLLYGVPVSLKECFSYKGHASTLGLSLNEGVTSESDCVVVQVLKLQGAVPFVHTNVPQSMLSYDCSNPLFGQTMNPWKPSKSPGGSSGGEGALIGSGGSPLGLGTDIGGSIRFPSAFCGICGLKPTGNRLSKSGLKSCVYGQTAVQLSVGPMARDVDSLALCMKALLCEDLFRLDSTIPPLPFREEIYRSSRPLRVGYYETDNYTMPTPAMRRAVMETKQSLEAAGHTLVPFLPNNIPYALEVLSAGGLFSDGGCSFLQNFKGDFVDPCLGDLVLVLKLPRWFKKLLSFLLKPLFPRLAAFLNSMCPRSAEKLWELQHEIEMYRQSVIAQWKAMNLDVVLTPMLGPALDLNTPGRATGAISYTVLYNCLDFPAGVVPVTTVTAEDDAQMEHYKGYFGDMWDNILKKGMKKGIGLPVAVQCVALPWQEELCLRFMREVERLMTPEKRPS
Summary of the method: as §1

MAGL [2] = target: T3, MAGL (Homo sapiens, UniProt Q99685); test: In vitro competitive activity-based protein profiling (human), MAGL gel band; assay type: biochemical
T3 construct: Proteomes (human prefrontal cortex or cell membrane fractions); from tissue; host or cells: human prefrontal cortex (or cell membrane fractions)
T3 sequence (Q99685 1-303): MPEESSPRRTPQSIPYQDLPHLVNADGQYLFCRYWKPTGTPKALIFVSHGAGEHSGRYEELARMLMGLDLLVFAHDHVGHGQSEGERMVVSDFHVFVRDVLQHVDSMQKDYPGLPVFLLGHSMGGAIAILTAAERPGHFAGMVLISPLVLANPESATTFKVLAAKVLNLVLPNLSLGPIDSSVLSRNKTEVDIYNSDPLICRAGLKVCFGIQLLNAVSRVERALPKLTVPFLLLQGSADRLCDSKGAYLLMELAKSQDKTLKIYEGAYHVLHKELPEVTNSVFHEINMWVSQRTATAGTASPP
Summary of the method: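 Human prefrontal cortex or cell membrane proteomes (1.0-2.0 mg/mL protein) preincubated with inhibitors 30 min at 37° C, then labelled with FP-Rh or JW912 probe 30 min at room temperature. Residual MAGL activity read as fluorescent gel-band intensity after SDS-PAGE.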

MAGL [3] = target: T1, MAGL; test: Mouse brain proteomes from inhibitor treated mice (oral gavage, sacrificed 4 h after administration); assay type: in vivo; details: read-out: MAGL % inh. 5 mg/kg
Summary of the method: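 Brains were collected 4 h after oral gavage dosing of wild-type C57Bl/6J mice, vehicle polyethylene glycol. Proteomes from these brains were then analyzed for MAGL and other serine hydrolase activity.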

| SMILES | inhibition at 1 µM (MAGL [1]) [%] | inhibition at 1 µM (FAAH) [%] | pIC50 (MAGL [2]) | inhibition at 5 mg/kg (MAGL [3]) [%] | pIC50 (MAGL [1]) | pIC50 (FAAH) |
| --- | --- | --- | --- | --- | --- | --- |
| CS(=O)(=O)Nc1ccn(C(=O)N2CCN(Cc3ccc(C(F)(F)F)cc3N3CCC3)CC2)n1 [Example 175, N-(1-(4-(2-(azetidin-1-yl)-4-(trifluoromethyl)benzyl)piperazine-1-carbonyl)-1H-pyrazol-3-yl) methanesulfonamide] | ≥ 75 | 0 to 25 | ≥ 7.00 | ≥ 75 |  |  |
| CS(=O)(=O)Nc1ccn(C(=O)N2CCN(Cc3ccc(Cl)c(N4CC5COCC5C4)c3)CC2)n1 (stereo not shown) [Example 203, N-(1-(4-(4-chloro-3-(tetrahydro-1H-furo[3,4-c]pyrrol-5(3H)-yl)benzyl)piperazine-1-carbonyl)-1H-pyrazol-3-yl) methanesulfonamide] | ≥ 75 | 0 to 25 | ≥ 7.00 | 0 to 25 | ≥ 7.00 | 5.00 to 6.00 |
| CS(=O)(=O)Nc1ccn(C(=O)N2CCC3(CCCN3Cc3ccc(C(F)(F)F)cc3N3C[C@H]4CC[C@@H](C3)O4)CC2)n1 [Example 136, N-(1-(1-(2-((1R,5S)-8-oxa-3-azabicyclo[3.2.1]octan-3-yl)-4-(trifluoromethyl)benzyl)-1,8-diazaspiro[4.5]decane-8-carbonyl)-1H-pyrazol-3-yl) methanesulfonamide] | ≥ 75 | 0 to 25 | ≥ 7.00 | 0 to 25 | 6.00 to 7.00 | 5.00 to 6.00 |
| CC(=O)Nc1ccn(C(=O)N2CCC3(CCCN3Cc3ccc(Cl)c(C)c3)CC2)n1 [Example 94, N-(1-(1-(4-chloro-3-methylbenzyl)-1,8-diazaspiro[4.5]decane-8-carbonyl)-1H-pyrazol-3-yl)acetamide] | ≥ 75 | 0 to 25 | ≥ 7.00 | ≥ 75 | ≥ 7.00 | 5.00 to 6.00 |
| CC1CCCN1c1cc(CN2CCN(C(=O)n3ccc(NS(C)(=O)=O)n3)CC2)ccc1Cl (stereo not shown) [Example 200, N-(1-(4-(4-chloro-3-(2-methylpyrrolidin-1-yl)benzyl)piperazine-1-carbonyl)-1H-pyrazol-3-yl) methanesulfonamide] | ≥ 75 | 0 to 25 | ≥ 7.00 | ≥ 75 |  |  |
| CS(=O)(=O)Nc1ccn(C(=O)N2CCN(Cc3ccc(C(F)(F)F)cc3N3CCC(C(=O)O)CC3)CC2)n1 [Example 186, 1-(2-((4-(3-(methylsulfonamido)-1H-pyrazole-1-carbonyl)piperazin-1-yl)methyl)-5-(trifluoromethyl)phenyl)piperidine-4-carboxylic acid] | ≥ 75 | 0 to 25 | 6.00 to 7.00 | 0 to 25 | 6.00 to 7.00 | 5.00 to 6.00 |
| CS(=O)(=O)Nc1ccn(C(=O)N2CCN(Cc3ccc(Cl)c(-c4ccc(C(F)(F)F)nc4)c3)CC2)n1 [Example 233, N-(1-(4-(4-chloro-3-(6-(trifluoromethyl)pyridin-3-yl)benzyl)piperazine-1-carbonyl)-1H-pyrazol-3-yl) methanesulfonamide] | ≥ 75 | 0 to 25 | ≥ 7.00 | 25 to 50 |  |  |
| CC(=O)Nc1ccn(C(=O)N2CCC3(CCCN3Cc3ccc(Cl)c(C4CC4)c3)CC2)n1 [Example 111, N-(1-(1-(4-chloro-3-cyclopropylbenzyl)-1,8-diazaspiro[4.5]decane-8-carbonyl)-1H-pyrazol-3-yl)acetamide] | ≥ 75 | 0 to 25 | ≥ 7.00 | 0 to 25 |  |  |
| CS(=O)(=O)Nc1ccn(C(=O)N2CCN(Cc3cccc(Cl)c3N3CC4CCC(C3)O4)CC2)n1 [Example 288, N-(1-(4-(2-(8-oxa-3-azabicyclo[3.2.1]octan-3-yl)-3-chlorobenzyl)piperazine-1-carbonyl)-1H-pyrazol-3-yl) methanesulfonamide] | ≥ 75 | 0 to 25 | ≥ 7.00 | 0 to 25 | ≥ 7.00 | 5.00 to 6.00 |
